Where two headings read alike, the source gives them in different places.
Columns and labels:
SARS-CoV-2 replicon [1] = test: microbe, parasite or virus in culture; format: cell-based
SARS-CoV-2 replicon [2] = test: microbe, parasite or virus in culture; format: cell-based; details: for effect of p-gp inhibitors on potency: in the presence of CP-100356 or elacridar
SARS-CoV-2 replicon [3] = test: microbe, parasite or virus in culture; format: cell-based; details: Calu-1 cells, compound alone
SARS-CoV-2 replicon [4] = test: microbe, parasite or virus in culture; format: cell-based; details: A549 cells, compound alone
SARS-CoV-2 replicon [5] = test: microbe, parasite or virus in culture; format: cell-based; details: Huh-7.5 cells
293T cells = test: Cytotoxicity assay (CellTiter-Glo) in replicon-transfected cells; details: range of concentrations tested
[6] = tested on: wild-type (wt) SARS-CoV-2; parameters: method as in doi:10.1101/2020.08.28.272880; details: ACE2 stably transfected A549 cells; read-out: EC50 against wild-type SARS-CoV-2 infection; cited from earlier work
SARS-CoV-2 replicon [7] = format: cell-based; details: concentrations up to 2 µM
[8] = Severe acute respiratory syndrome coronavirus 2, HEK-293T, 30 h, read-out: EC50
[9] = Severe acute respiratory syndrome coronavirus 2, Vero cells, compound alone
[10] = Severe acute respiratory syndrome coronavirus 2
[11] = Severe acute respiratory syndrome coronavirus 2, Huh7.5

Row | SMILES | EC50 (SARS-CoV-2 replicon [1]; [8]) | EC50 (SARS-CoV-2 replicon [2]; [9]) | effect of p-gp inhibitors on potency (SARS-CoV-2 replicon [2]; Vero cells) | EC50 (SARS-CoV-2 replicon [3]; [10]) | EC50 (SARS-CoV-2 replicon [4]; [10]) | also measured
1 | CC(C)(C)NC(=O)N[C@H](C(=O)N1C[C@H]2[C@@H]([C@H]1C(=O)NC(CC1CCC1)C(=O)C(N)=O)C2(C)C)C(C)(C)C (stereo partly drawn) [MK-3034] | 3550 nM | 16600 nM | slight increase of the activities | 4790 nM | 19900 nM | –
2 | CC(C)C[C@H](NC(=O)OCc1ccccc1)C(=O)N[C@@H](CC1CCNC1=O)C(O)S(=O)(=O)O (stereo partly drawn) [GC376] | – | – | – | – | – | EC50 (SARS-CoV-2 replicon [1]; read-out: EC50): 20.8 ± 5.4 nM; EC50 (SARS-CoV-2 replicon [1]; read-out: potency (EC50) in inhibiting SARS-CoV-2 replicon replication, percent GFP signal): 22 nM; EC50 (SARS-CoV-2 replicon [1]; read-out: potency (EC50) in inhibiting SARS-CoV-2 replicon replication, percent luciferase activity): 29.2 nM; EC50 (SARS-CoV-2 replicon [2]; Vero cells, compound alone): 237 ± 74 nM; EC50 (SARS-CoV-2 replicon [5]): 19.4 ± 4.9 nM; EC50 (SARS-CoV-2 replicon [3]): 19.8 ± 2 nM; EC50 (SARS-CoV-2 replicon [4]): 570 ± 182 nM
3 | CC(C)C[C@H](NC(=O)OCc1ccccc1)C(=O)N[C@@H](C[C@@H]1CCNC1=O)C(O)S(=O)(=O)[O-].[Na+] (stereo partly drawn) [GC376] | – | – | slight increase of the activities | – | – | cytotoxicity (293T cells): No cytotoxicity was detected
4 | CCC(CC)COC(=O)[C@H](C)N[P@](=O)(OC[C@H]1O[C@@](C#N)(c2ccc3c(N)ncnn23)[C@H](O)[C@@H]1O)Oc1ccccc1 [GS-5734] | 15.6 ± 5.1 nM | 2240 nM | – | 31.5 ± 23 nM | 184 nM | EC50 (SARS-CoV-2 replicon [5]; [11]): 18.9 nM; EC50 [6]: 442 nM
5 | CC(C)C[C@H](NC(=O)c1cc2ccccc2o1)C(=O)N[C@H]1CC[C@@H](C)N(S(=O)(=O)c2ccccn2)CC1=O [Relacatib] | > 42000 nM | > 42000 nM | – | > 42000 nM | > 42000 nM | –
6 | COc1cccc2[nH]c(C(=O)N[C@@H](CC(C)C)C(=O)N[C@@H](C[C@@H]3CCNC3=O)C(=O)CO)cc12 [PF-00835231] | – | – | dramatically increased the potency | – | – | EC50 (SARS-CoV-2 replicon [1]; read-out: EC50): 75.2 ± 19.1 nM; EC50 (SARS-CoV-2 replicon [2]; Vero cells, compound alone): 2190 nM; EC50 (SARS-CoV-2 replicon [5]): 175 ± 56 nM; EC50 (SARS-CoV-2 replicon [3]): 24.7 ± 3.8 nM; EC50 (SARS-CoV-2 replicon [4]): 76.3 ± 16.2 nM
7 | COc1cc2c(cc1OC)CN(CCc1ccc(NC(=O)c3cccc4c(=O)c5cccc(OC)c5[nH]c34)cc1)CC2 [Elacridar] | – | > 4670 nM | – | > 8400 nM | > 4670 nM | antiviral activity when tested alone (SARS-CoV-2 replicon [7]): No antiviral activities were observed
8 | CC(C)C[C@H](NC(=O)OCc1ccccc1)C(=O)N[C@H](C=O)C[C@@H]1CCNC1=O [GC373] | – | – | slight increase of the activities | – | – | EC50 (SARS-CoV-2 replicon [1]; read-out: EC50): 20.3 ± 5.3 nM; EC50 (SARS-CoV-2 replicon [2]; Vero cells, compound alone): 309 ± 43 nM; EC50 (SARS-CoV-2 replicon [3]): 30.1 ± 5.8 nM; EC50 (SARS-CoV-2 replicon [4]): 539 ± 69 nM
9 | Cc1cccc(/C=N/Nc2cc(N3CCOCC3)nc(OCCc3ccccn3)n2)c1 [Apilimod] | – | – | – | > 42000 nM | – | EC50 (SARS-CoV-2 replicon [5]; [11]): > 42000 nM
10 | N=C(N)c1ccc2cc(OC(=O)c3ccc(N=C(N)N)cc3)ccc2c1 [Nafamostat] | > 42000 nM | – | – | > 42000 nM | > 42000 nM | EC50 (SARS-CoV-2 replicon [2]; Severe acute respiratory syndrome coronavirus 2, Vero C1008, Vero E6 cells (so in the source)): > 42000 nM
11 | N#C[C@@]1(c2ccc3c(N)ncnn23)O[C@H](CO)[C@@H](O)[C@H]1O [GS-441524] | 603 ± 131 nM | 302 ± 20 nM | – | 1330 nM | 1470 nM | EC50 (SARS-CoV-2 replicon [1]; Severe acute respiratory syndrome coronavirus 2, HEK-293T, 30 h, read-out: potency (EC50) in inhibiting SARS-CoV-2 replicon replication, percent GFP signal): 645 nM; EC50 (SARS-CoV-2 replicon [1]; Severe acute respiratory syndrome coronavirus 2, HEK-293T, 30 h, read-out: potency (EC50) in inhibiting SARS-CoV-2 replicon replication, percent luciferase activity): 503 nM; EC50 (SARS-CoV-2 replicon [5]; [11]): 1030 nM; cytotoxicity (293T cells): No cytotoxicity was detected
12 | CN(C)C(=O)COC(=O)Cc1ccc(OC(=O)c2ccc(NC(=N)N)cc2)cc1 [Camostat] | > 42000 nM | > 42000 nM | – | > 42000 nM | > 42000 nM | –
